Source: ChEMBL document CHEMBL5260810, “Inhibition of bromodomain-containing protein 9 for the prevention of epigenetically-defined drug resistance” (Bioorg Med Chem Lett, 2017)

Key:
Jurkat = experiment: Cytotoxicity against human Jurkat cells measured after 8 days; type: functional, cell-based; conditions: 192 h
[1] = Cytotoxicity against human KMS-34 cells measured after 8 days; type: functional, cell-based; conditions: KMS-34, 192 h
[2] = Cytotoxicity against mouse LL2 cells measured after 8 days; type: functional, cell-based; conditions: Lewis lung carcinoma, 192 h
NCI-H187 = experiment: Cytotoxicity against human NCI-H187 cells measured after 8 days; type: functional, cell-based; conditions: NCI-H187, 192 h
NCI-H1930 = experiment: Cytotoxicity against human NCI-H1930 cells measured after 8 days; type: functional, cell-based; conditions: NCI-H1930, 192 h
U-266 = experiment: Cytotoxicity against human U266B1 cells measured after 8 days; type: functional, cell-based; conditions: U-266, 192 h
143B = experiment: Cytotoxicity against human 143B cells measured after 8 days; type: functional, cell-based; conditions: 192 h
NCI-H889 = experiment: Cytotoxicity against human NCI-H889 cells measured after 8 days; type: functional, cell-based; conditions: NCI-H889, 192 h
SCLC-21H = experiment: Cytotoxicity against human SCLC-21H cells measured after 8 days; type: functional, cell-based; conditions: 192 h
SK-N-BE(2)-M17 = experiment: Cytotoxicity against human SK-N-BE(2)-M17 cells measured after 8 days; type: functional, cell-based; conditions: SK-N-BE(2)-M17, 192 h
[3] = Cytotoxicity against human NCE-G 120 cells measured after 8 days; type: functional, cell-based; conditions: NCE-G 120, 192 h
[4] = Cytotoxicity against human NCE-G 121 cells measured after 8 days; type: functional, cell-based; conditions: NCE-G 121, 192 h
[5] = Cytotoxicity against human NCE-G 122 cells measured after 8 days; type: functional, cell-based; conditions: NCE-G 122, 192 h
[6] = Cytotoxicity against human NCE-G 22 cells measured after 8 days; type: functional, cell-based; conditions: NCE-G 22, 192 h
[7] = Cytotoxicity against human Ri-1 cells measured after 8 days; type: functional, cell-based; conditions: Ri-1, 192 h
KALS-1 = experiment: Cytotoxicity against human KALS-1 cells measured after 8 days; type: functional, cell-based; conditions: KALS-1, 192 h
[8] = Cytotoxicity against human NB(TU)1 cells measured after 8 days; type: functional, cell-based; conditions: NB(TU)1, 192 h
SF-539 = experiment: Cytotoxicity against human SF-539 cells measured after 8 days; type: functional, cell-based; conditions: SF-539, 192 h
SU-DHL-5 = experiment: Cytotoxicity against human SU-DHL-5 cells measured after 8 days; type: functional, cell-based; conditions: SU-DHL-5, 192 h
T98G = experiment: Cytotoxicity against human T98G cells measured after 8 days; type: functional, cell-based; conditions: 192 h
[9] = Cytotoxicity against mouse 66cl-4 cells measured after 8 days; type: functional, cell-based; conditions: 66cl-4, 192 h
BT-474 = experiment: Cytotoxicity against human BT-474 cells measured after 8 days; type: functional, cell-based; conditions: BT-474, 192 h
EFM-19 = experiment: Cytotoxicity against human EFM-19 cells measured after 8 days; type: functional, cell-based; conditions: EFM-19, 192 h
[10] = Cytotoxicity against human HCC1159 cells measured after 8 days; type: functional, cell-based; conditions: HCC1159, 192 h
OVCAR-4 = experiment: Cytotoxicity against human OVCAR-4 cells measured after 8 days; type: functional, cell-based; conditions: OVCAR-4, 192 h
RMG-I = experiment: Cytotoxicity against human RMG-I cells measured after 8 days; type: functional, cell-based; conditions: 192 h
[11] = Cytotoxicity against human RMUG-S cells measured after 8 days; type: functional, cell-based; conditions: 192 h
SK-OV-3 = experiment: Cytotoxicity against human SK-OV-3 cells measured after 8 days; type: functional, cell-based; conditions: SK-OV-3, 192 h
[12] = Cytotoxicity against human TYK-nu.CP-r cells measured after 8 days; type: functional, cell-based; conditions: 192 h
Ca-Ski = experiment: Cytotoxicity against human Ca-Ski cells measured after 8 days; type: functional, cell-based; conditions: 192 h
[13] = Cytotoxicity against human HCSC-1 cells measured after 8 days; type: functional, cell-based; conditions: HCSC-1, 192 h
[14] = Cytotoxicity against human SBC-7 cells measured after 8 days; type: functional, cell-based; conditions: SBC-7, 192 h
SiHa = experiment: Cytotoxicity against human SiHa cells measured after 8 days; type: functional, cell-based; conditions: 192 h
[15] = Cytotoxicity against human SKG-II cells measured after 8 days; type: functional, cell-based; conditions: 192 h
[16] = Cytotoxicity against human KP-3L cells measured after 8 days; type: functional, cell-based; conditions: 192 h
[17] = Cytotoxicity against human KPR3070 cells measured after 8 days; type: functional, cell-based; conditions: KPR3070, 192 h
[18] = Cytotoxicity against human PaTu 8902 cells measured after 8 days; type: functional, cell-based; conditions: PaTu 8902, 192 h
Panc02 = experiment: Cytotoxicity against mouse Panc02 cells measured after 8 days; type: functional, cell-based; conditions: Panc02, 192 h
[19] = Cytotoxicity against human SUIT-2 cells measured after 8 days; type: functional, cell-based; conditions: SUIT-2, 192 h
YAPC = experiment: Cytotoxicity against human YAPC cells measured after 8 days; type: functional, cell-based; conditions: 192 h
[20] = Cytotoxicity against human 624-mel cells measured after 8 days; type: functional, cell-based; conditions: Homo sapiens, 624, 192 h
B16-F1 = experiment: Cytotoxicity against mouse B16-F1 cells measured after 8 days; type: functional, cell-based; conditions: B16-F1, 192 h
C32 = experiment: Cytotoxicity against human C32 cells measured after 8 days; type: functional, cell-based; conditions: C32, 192 h
CHL-1 = experiment: Cytotoxicity against human CHL-1 cells measured after 8 days; type: functional, cell-based; conditions: CHL-1, 192 h
COLO-680N = experiment: Cytotoxicity against human COLO-680N cells measured after 8 days; type: functional, cell-based; conditions: 192 h
KYSE-140 = experiment: Cytotoxicity against human KYSE-140 cells measured after 8 days; type: functional, cell-based; conditions: KYSE-140, 192 h
OE33 = experiment: Cytotoxicity against human OE33 cells measured after 8 days; type: functional, cell-based; conditions: OE33, 192 h
[21] = Cytotoxicity against human COLO 849 cells measured after 8 days; type: functional, cell-based; conditions: COLO 849, 192 h
[22] = Cytotoxicity against human FA9JTOTERT cells measured after 8 days; type: functional, cell-based; conditions: 192 h
[23] = Cytotoxicity against human HSC-5 cells measured after 8 days; type: functional, cell-based; conditions: HSC-5, 192 h
IPC-298 = experiment: Cytotoxicity against human IPC-298 cells measured after 8 days; type: functional, cell-based; conditions: IPC-298, 192 h
MeWo = experiment: Cytotoxicity against human MeWo cells measured after 8 days; type: functional, cell-based; conditions: 192 h
SNU-387 = experiment: Cytotoxicity against human SNU-387 cells measured after 8 days; type: functional, cell-based; conditions: SNU-387, 192 h
SNU-16 = experiment: Cytotoxicity against human SNU-16 cells measured after 8 days; type: functional, cell-based; conditions: SNU-16, 192 h
[24] = Cytotoxicity against human COR-L26 cells measured after 8 days; type: functional, cell-based; conditions: COR-L26, 192 h
BCPAP = experiment: Cytotoxicity against human BCPAP cells measured after 8 days; type: functional, cell-based; conditions: 192 h
SW780 = experiment: Cytotoxicity against human SW780 cells measured after 8 days; type: functional, cell-based; conditions: SW780, 192 h
H322 = experiment: Cytotoxicity against human H322 cells measured after 8 days; type: functional, cell-based; conditions: NCI-H322, 192 h
[25] = Cytotoxicity against human HCC1534 cells measured after 8 days; type: functional, cell-based; conditions: HCC1534, 192 h
[26] = Cytotoxicity against human HCC364 cells measured after 8 days; type: functional, cell-based; conditions: HCC364, 192 h
Skut1B = experiment: Cytotoxicity against human Skut1B cells measured after 8 days; type: functional, cell-based; conditions: 192 h
[27] = molecular target: Serine/threonine-protein kinase PLK1 (Homo sapiens) (UniProt P53350); experiment: Inhibition of PLK1 (unknown origin) at 1 uM relative to control
Sequence of Serine/threonine-protein kinase PLK1 (Homo sapiens) (P53350 whole entry): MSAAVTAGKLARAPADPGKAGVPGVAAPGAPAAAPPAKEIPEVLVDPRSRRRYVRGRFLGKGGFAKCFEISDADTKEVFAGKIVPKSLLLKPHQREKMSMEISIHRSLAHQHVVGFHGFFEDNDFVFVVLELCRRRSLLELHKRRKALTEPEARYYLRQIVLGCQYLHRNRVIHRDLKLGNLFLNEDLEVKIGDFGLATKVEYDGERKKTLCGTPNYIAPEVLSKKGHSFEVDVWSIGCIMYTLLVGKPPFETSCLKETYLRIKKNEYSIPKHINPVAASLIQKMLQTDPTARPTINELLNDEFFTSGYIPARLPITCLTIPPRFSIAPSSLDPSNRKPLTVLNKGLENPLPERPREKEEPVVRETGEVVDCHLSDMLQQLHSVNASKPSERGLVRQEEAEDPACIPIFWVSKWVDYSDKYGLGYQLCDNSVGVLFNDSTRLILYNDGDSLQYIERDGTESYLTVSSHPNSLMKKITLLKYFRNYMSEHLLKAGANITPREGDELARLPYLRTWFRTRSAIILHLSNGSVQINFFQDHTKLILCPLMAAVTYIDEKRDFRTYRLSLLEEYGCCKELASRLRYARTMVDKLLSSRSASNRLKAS

C/C=C/Cn1cc(-c2ccc(C(C)(C)O)cc2OC)c2cc[nH]c2c1=O
14.8 µM: IC50 (Jurkat)
15.2 µM: IC50 (CHL-1)
10.3 µM: IC50 (SU-DHL-5)
1%: inhibition [27]
20 µM: IC50 [1] | IC50 [2] | IC50 (NCI-H187) | IC50 (NCI-H1930) | IC50 (U-266) | IC50 (NCI-H889) | IC50 (SCLC-21H) | IC50 (SK-N-BE(2)-M17) | IC50 [3] | IC50 [4] | IC50 [5] | IC50 [6] | IC50 [7] | IC50 (KALS-1) | IC50 [8] | IC50 (SF-539) | IC50 (T98G) | IC50 [9] | IC50 (BT-474) | IC50 (EFM-19) | IC50 [10] | IC50 (OVCAR-4) | IC50 (RMG-I) | IC50 [11] | IC50 (SK-OV-3) | IC50 [12] | IC50 (Ca-Ski) | IC50 [13] | IC50 [14] | IC50 (SiHa) | IC50 [15] | IC50 [16] | IC50 [17] | IC50 [18] | IC50 (Panc02) | IC50 [19] | IC50 (YAPC) | IC50 [20] | IC50 (B16-F1) | IC50 (C32) | IC50 (COLO-680N) | IC50 (KYSE-140) | IC50 (OE33) | IC50 [21] | IC50 [22] | IC50 [23] | IC50 (IPC-298) | IC50 (MeWo) | IC50 (SNU-387) | IC50 (SNU-16) | IC50 [24] | IC50 (BCPAP) | IC50 (SW780) | IC50 (H322) | IC50 [25] | IC50 [26] | IC50 (Skut1B)
17.2 µM: IC50 (143B)

C/C=C/Cn1cc(-c2ccc(C(=O)N3CCOCC3)cc2)c2cc[nH]c2c1=O
15.2 µM: IC50 (CHL-1)
13.5 µM: IC50 (B16-F1)
20 µM: IC50 (Jurkat) | IC50 [2] | IC50 (NCI-H187) | IC50 (NCI-H1930) | IC50 (U-266) | IC50 (143B) | IC50 (NCI-H889) | IC50 (SCLC-21H) | IC50 (SK-N-BE(2)-M17) | IC50 [3] | IC50 [4] | IC50 [5] | IC50 [6] | IC50 [7] | IC50 (KALS-1) | IC50 [8] | IC50 (SF-539) | IC50 (T98G) | IC50 [9] | IC50 (BT-474) | IC50 (EFM-19) | IC50 [10] | IC50 (OVCAR-4) | IC50 [11] | IC50 (SK-OV-3) | IC50 [12] | IC50 (Ca-Ski) | IC50 [13] | IC50 [14] | IC50 (SiHa) | IC50 [15] | IC50 [16] | IC50 [17] | IC50 [18] | IC50 (Panc02) | IC50 [19] | IC50 (YAPC) | IC50 [20] | IC50 (C32) | IC50 (COLO-680N) | IC50 (KYSE-140) | IC50 (OE33) | IC50 [21] | IC50 [22] | IC50 [23] | IC50 (MeWo) | IC50 (SNU-387) | IC50 (SNU-16) | IC50 [24] | IC50 (BCPAP) | IC50 (SW780) | IC50 (H322) | IC50 [25] | IC50 [26] | IC50 (Skut1B)
0.9%: inhibition [27]
15.3 µM: IC50 [1]
14.8 µM: IC50 (SU-DHL-5)
19.4 µM: IC50 (RMG-I)
18.6 µM: IC50 (IPC-298)
